BindingDB's records for doi:10.1021/jm020018f (Sphinx Laboratories, 2002)

biological target: cAMP-dependent protein kinase catalytic subunit alpha (Bos taurus, UniProt P00517); test: PKA assay; details: not given
Experimental: The activity of PKA, activated by cAMP, is measured by its ability to transfer phosphate from [gamma-32P]ATP to histone.

| SMILES | IC50 |
| --- | --- |
| O=C(N[C@@H]1CNCCC[C@H]1OC(=O)c1cc(O)c(Cc2c(O)cccc2C(=O)O)c(O)c1)c1ccc(O)cc1 [2-{[2,6-dihydroxy-4-({[(3R,4R)-3-[(4-hydroxybenzene)amido]azepan-4-yl]oxy}carbonyl)phenyl]methyl}-3-hydroxybenzoic acid] | 470 nM |
| O=C(N[C@@H]1CNCCC[C@H]1OC(=O)c1cc(O)c(C(=O)c2ccc3ccccc3c2O)c(O)c1)c1ccc(O)cc1 [4-trans-[4-(1-Hydroxy-2-naphthoyl)-3,5-dihydroxybenzoyloxy]-3-(4-hydroxybenzamido)azepane] | > 150000 nM |
| COc1cc(C(=O)O[C@@H]2CCCNC[C@H]2NC(=O)c2ccc(O)cc2)cc(OC)c1C(=O)c1c(O)cccc1O [(3R,4R)-3-[(4-hydroxybenzene)amido]azepan-4-yl 4-[(2,6-dihydroxyphenyl)carbonyl]-3,5-dimethoxybenzoate] | 4300 nM |
| O=C(N[C@@H]1CNCCC[C@H]1OC(=O)c1cc(O)c2c(=O)c3c(C(=O)O)cccc3oc2c1)c1ccc(O)cc1 [8-hydroxy-6-({[(3R,4R)-3-[(4-hydroxybenzene)amido]azepan-4-yl]oxy}carbonyl)-9-oxo-9H-xanthene-1-carboxylic acid] | > 15000 nM |
| O=C(N[C@@H]1CNCCC[C@H]1OC(=O)c1cc(O)c(C2OC(=O)c3cccc(O)c32)c(O)c1)c1ccc(O)cc1 (stereo partly drawn) [trans-4-[3,5-Dihydroxy-4-(4-hydroxy-3-phthlido)benzoyloxy]-3-(4-hydroxybenzamido)azepine] | 300 nM |

The next lines start with the values.

| IC50 | SMILES |
| --- | --- |
| 250 nM | COc1cccc(O)c1C(=O)c1c(O)cc(C(=O)O[C@@H]2CCCNC[C@H]2NC(=O)c2ccc(O)cc2)cc1O [(3R,4R)-3-[(4-hydroxybenzene)amido]azepan-4-yl 3,5-dihydroxy-4-[(2-hydroxy-6-methoxyphenyl)carbonyl]benzoate] |
| 360 nM | COc1cccc(OC)c1C(=O)c1c(O)cc(C(=O)O[C@@H]2CCCNC[C@H]2NC(=O)c2ccc(O)cc2)cc1O [(3R,4R)-3-[(4-hydroxybenzene)amido]azepan-4-yl 4-[(2,6-dimethoxyphenyl)carbonyl]-3,5-dihydroxybenzoate] |

same assay, conditions: pH 7.5; 30 °C

| SMILES | IC50 |
| --- | --- |
| O=C(N[C@@H]1CNCCC[C@H]1OC(=O)c1cc(O)c(C(=O)[C@@H]2CCCC[C@@H]2C(=O)O)c(O)c1)c1ccc(O)cc1 [4-trans-[4-(cis-2-Carboxycyclohexanoyl)-3,5-dihydroxybenzoyloxy]-3-(4-hydroxybenzamido)azepane] | 7900 nM |
| O=C(N[C@@H]1CNCCC[C@H]1OC(=O)c1cc(O)c(C(=O)[C@@H]2CCCC[C@H]2C(=O)O)c(O)c1)c1ccc(O)cc1 [(1R,2R)-2-{[2,6-dihydroxy-4-({[(3R,4R)-3-[(4-hydroxybenzene)amido]azepan-4-yl]oxy}carbonyl)phenyl]carbonyl}cyclohexane-1-carboxylic acid] | 6700 nM |

Second part, the compound after the results:

| IC50 | SMILES |
| --- | --- |
| 440 nM | O=C(N[C@@H]1CNCCC[C@H]1OC(=O)c1cc(O)c(C(=O)c2ccccc2O)c(O)c1)c1ccc(O)cc1 [4-trans-[4-(2-Hydroxybenzoyl)-3,5-dihydroxybenzoyloxy]-3-(4-hydroxybenzamido)azepane] |
| 440 nM | O=C(N[C@@H]1CNCCC[C@H]1OC(=O)c1cc(O)c(C(=O)c2c(O)cccc2O)c(O)c1)c1ccc(O)cc1 [(3R,4R)-3-[(4-hydroxybenzene)amido]azepan-4-yl 4-[(2,6-dihydroxyphenyl)carbonyl]-3,5-dihydroxybenzoate] |
| 1000 nM | O=C(N[C@@H]1CNCCC[C@H]1OC(=O)c1cc(O)c(C(=O)c2ccccc2C(=O)O)c(O)c1)c1ccc(O)cc1 |
